Legend:
[1] = tested on: OA-induced contraction in guinea-pig trachea; assay: OA-induced contraction of tracheal preparations from OA-sensitised guinea pigs (organ bath); details: 30-minute pre-treatment
Experimental: Zig-zag tracheal segments are obtained from male Ovoalbumin (OA)-sensitised guinea pigs and two preparations are obtained from a trachea. Each preparation is placed in 20-ml organ bath filled with oxygenated (O2 95% and CO2 5%) normal Krebs-Henseleit solution and maintained at 37° C. Tracheal preparations are connected to isometric force transducers under a resting tone of 1 g. After an equilibration period of 60 minutes, tracheal preparations are pretreated for 30 minutes with C1 (10^-7 M), Carmoterol (3*10^-10 M), the association C1 and Carmoterol or vehicle, respectively, followed by cumulative administration of OA (10^−10-10^−5 g/ml). At the end of the OA administration a maximal concentration of carbachol (10^−5 M) is added to obtain the maximal contraction of each preparation. The effects are expressed as percent values of the carbachol-induced maximal response (100%).

[2] = tested on: LPS-induced TNF-α release in human PBMCs (PDE4 inhibitory activity); assay: LPS-induced TNF-α release in peripheral blood mononuclear cells (PBMCs) assay; format: cell-based; details: PBMC, LPS 3 ng/ml, 18 hours, TNF-α by ELISA, mean ± 95% confidence limits, read-out: molar concentration producing 50% inhibition of LPS-induced TNF-α release (IC50)
Experimental: The assay, which is based on the known inhibitory activity exerted by PDE4 inhibitors on the lipopolyshaccarides (LPS)-induced tumour necrosis factor-alpha (TNF-α release in peripheral blood mononuclear cells (PBMCs), is performed according to a method previously described (Hatzelmann A et al., J. Pharmacol. Exp. Ther., 2001; 297:267-279; and Draheim R et al., J. Pharmacol. Exp. Ther., 2004; 308:555-563, both of which are incorporated herein by reference in their entireties.
Cryopreserved human PBMCs, (100 μl/well) are incubated in 96-well plates (10^5 cells/well), for 30 minutes, in the presence or absence (50 microl) of the test compounds whose concentrations range from 10^−12 M to 10^−6 M. Subsequently, LPS (3 ng/ml) is added.
After 18 hours incubation at 37° C. in a humidified incubator under an atmosphere of 95% air and 5% CO2, culture medium is collected and TNF-α is measured by ELISA.
The effects of the tested compounds are calculated as percentage of inhibition of TNF-α release, assuming LPS-induced TNF-α production in the absence of inhibitor compound as 100% and basal TNF-α production of PBMCs in the absence of LPS as 0%.

Compound	inhibition at 0.1 µM ([1]; Cavia porcellus, C1 10^−7 M)	IC50 [2]	inhibition of the OA-induced contraction ([1]; Carmoterol 3*10^-10 M)
CS(=O)(=O)Nc1ccc(C(=O)OC(Cc2c(Cl)cncc2Cl)c2ccc(OC(F)F)c(OCC3CC3)c2)cc1OCC1CC1 (single isomer, unassigned; (-)) [Compound C1, (−)-3-Cyclopropylmethoxy-4-methanesulfonylamino-benzoic acid 1-(3-cyclopropylmethoxy-4-difluoromethoxy-phenyl)-2-(3,5-dichloro-pyridin-4-yl)-ethyl ester]	23%	0.06 to 4.4 nM	–
COc1ccc(C[C@@H](C)NC[C@H](O)c2ccc(O)c3[nH]c(=O)ccc23)cc1 [Carmoterol, carmoterol, reference compound]	–	–	18%

From US9056176B2, “1-phenyl-2-pyridinyl alkyl alcohol compounds as phosphodiesterase inhibitors” (CHIESI FARMACEUTICI S.P.A., priority 2009, dated 2015)
